# Read-outs that look alike come from different tables or passages of the source.
# Key:
# Candida albicans (CA01) = assay: Antifungal assay (MIC), Candida albicans CA01; type: cell-based; details: 48 h
# Protocol: (§1) Stock solutions of all compounds were prepared in DMSO. Two bacterial (E. coli UTI89 and S. aureus S25) and two yeast strains (C. krusei CK1 and C. albicans CA01) have been used for this study. […] Each culture was diluted 12 times to have a final OD value of 0.1. Then, 100 µL from the diluted (OD of 0.1) bacterial culture and 0.5 μL of each stock solution was added to the corresponding wells (in triplicate) in a 96-well plate to a final concentration of 50 μM. For the antifungal assay, the two strains C. krusei CK1 and C. albicans CA01 were spread on Petri plates with YPD (yeast-extract peptone dextrose) agar. Later, an isolated colony was collected in a tube containing 5mL of RGM (RPMI 1640® (21875, Invitrogen GIBCO®) + 34.56g/L MOPS) to have an OD of 0.05. The fungal culture and stock solutions of compounds were diluted and added to the wells as indicated for the antibacterial activity assay. To determine the potential inhibitory effect of extracts on fungal growth, absorbance at t = 0 h, t = 20 h (for antibacterial assay), and t = 48 h (for antifungal assay) were measured with the Biotek Synergy 2 Plate Reader at a wavelength of 600 nm and analyzed with the software Gen5 v3.08. Then, the differential OD was calculated (ODT48/20-ODT0) and compared to solvent control. […] Ampicillin was used as positive control (MIC of 0.5 µg/mL for all bacteria and 1.0 µg/mL for all fungi).
# (CK01) = assay: Antifungal assay (MIC), Candida strain CK01; type: cell-based, Candida tropicalis; details: 48 h
# [1] = tested on: Leishmania infantum (LI01); assay: Antiparasitic activity (MIC), Leishmania infantum LI01; type: cell-based
# human monocytes (THP-1) = assay: Cytotoxicity assay (AlamarBlue), THP-1; type: cell-based; details: PMA-activated
# Protocol: (§2) Human erythrocytes (RBC), human monocytes (THP-1), and peripheral blood mononuclear cells (PBMC) were used for this study. THP-1 cells (TIB-202) were obtained from ATCC (https://www.atcc.org (accessed on 26 January 2025)) and activated with PMA (phorbol myristate acetate) (100 ng/mL) for 48 h. Cells were grown in RPMI 1640 medium supplemented with fetal bovine serum (FBS) 10% (10270-098, GIBCO®) and penicillin/streptomycin (1%) (15140-122 GIBCO®) at 37 °C under 5% CO2 atmosphere.
# (§3) For the cytotoxicity assay, THP-1 and PBMC medium cultures were added into 96-well plates with 5 × 10^3 cells per well. A two-fold dilution concentration series of each compound was added to the plates to final concentrations of 200 − 6.25 μM. AlamarBlue (DAL1025, ThermoFisher, Waltham, MA, USA), a ready-to-use resazurin-based solution, was used to measure cell viability after treatment with the extracts. A total of 10 µL was added to each well and the plate was incubated for 6–8 h at 37 °C. Fluorescence was then measured with the Biotek Synergy 2 Plate Reader using excitation at 530 nm and emission at 590 nm. The percentage of cell death was then calculated using the following formula (Equation (3)):(3) % Cellular Death = 100 × ODt − OD100/OD0 − OD100 where ODt = the fluorescence value of the test compound, OD100 = the fluorescence value for the culture medium, and OD0 = the fluorescence value for Triton 0.12%.
# human erythrocytes (RBC) = assay: Hemolytic assay, human erythrocytes; type: cell-based; details: for IC50: Homo sapiens, Erythrocyte, 0.5 h; for cytotoxicity against human erythrocytes (RBC): result in words
# Protocol: as §2
# For the hemolytic assay, freshly obtained human erythrocytes (RBCs) from patients were washed twice with PBS (pH 7.4). This assay was performed at 10% hematocrit with two-fold serial dilutions from 200 μM of test compounds in a final volume of 100 μL, followed by incubation at 37 °C under 5% CO2 atmosphere for 30 min. Later, the plates were centrifugated at 3000g for 5 min and supernatant was transferred onto a new 96-well plate. Finally, RBC lysis was determined by the absorbance of the supernatant at 540 nm. Results were calculated with the following formula (Equation (2)):(2) % hemolysis = 100 × ODt − OD100/OD0 − OD100 where ODt = the absorbance value of test compounds; OD100 = the absorbance value of the medium; and OD0 = the absorbance value of the wells treated with 1% Triton-X.
# [2] = tested on: peripheral blood mononuclear cells (PBMC); assay: Cytotoxicity assay (AlamarBlue), PBMC; type: cell-based, human; details: PBMC primary cells
# Protocol: as §2, §3
# Escherichia coli (UTI89) = assay: Antibacterial assay (MIC), Escherichia coli UTI89; type: cell-based; details: 20 h
# Protocol: as §1
# [3] = tested on: Staphylococcus aureus (S25); assay: Antibacterial assay (MIC/MBC), Staphylococcus aureus S25; type: cell-based; details: for MIC: 20 h
# Protocol: as §1
# [4] = tested on: all bacteria (E. coli UTI89 and S. aureus S25); assay: Antibacterial assay, positive control, all bacteria; type: cell-based; details: Escherichia coli
# Protocol: as §1
# [5] = tested on: all fungi (C. krusei CK1 and C. albicans CA01); assay: Antifungal assay, positive control, all fungi; type: cell-based; details: Pichia kudriavzevii
# Protocol: as §1
# Staphylococcus aureus = details: result in words; cited from earlier work
# [6] = tested on: Niemann-Pick C1-like 1 (NPC1L1) protein; design: method as in PMID 30665368; details: reducing the cholesterol absorption; cited from earlier work
# [7] = Homo sapiens, THP-1 cell line, read-out: IC50
# [8] = RBC primary cells, hemolysis, 30 min, 10% hematocrit, read-out: IC50
# [9] = Staphylococcus aureus (S25), OD 600 nm, inhibiting bacterial growth, read-out: MIC
# [10] = Homo sapiens, THP-1, THP-1 cell line
Compound,IC50 (human monocytes (THP-1); [7]),IC50 (human erythrocytes (RBC); [8]),"IC50 ([2]; Homo sapiens, read-out: IC50)","MIC [3, 9]",MIC (Escherichia coli (UTI89); Escherichia coli),MBC ([3]; Staphylococcus aureus),MIC ([3]; Staphylococcus aureus),MIC (Candida albicans (CA01); Candida albicans),MIC ((CK01); Candida tropicalis),MIC ([1]; Leishmania infantum),IC50 (human monocytes (THP-1); [10]),IC50 (human monocytes (THP-1); THP-1 cell line),IC50 (human erythrocytes (RBC)),cytotoxicity against human erythrocytes (RBC) (human erythrocytes (RBC)),"IC50 ([2]; Homo sapiens, PBMC)",IC50 [2],also measured
"C[C@@H]1[C@H](O)[C@@H](C)/C=C/C=C/C=C/C=C/C=C/C=C/C=C/[C@H](O[C@@H]2O[C@H](C)[C@@H](O)[C@H](N)[C@@H]2O)C[C@@H]2O[C@](O)(C[C@@H](O)C[C@@H](O)[C@H](O)CC[C@@H](O)C[C@@H](O)CC(=O)O[C@H]1C)C[C@H](O)[C@H]2C(=O)O [Amphotericin B, reference compound]",3.13 µM,25 µM,6.25 µM,–,–,–,–,–,–,–,–,–,–,–,–,–,"MIC (Candida albicans (CA01); Candida albicans (CA01), OD 600 nm, read-out: MIC): 0.2 µM; MIC ((CK01); Candida tropicalis (CK01), OD 600 nm, read-out: MIC): 0.2 µM; MIC ([1]; Leishmania infantum (LI01), read-out: MIC): 0.39 µM"
"CC1(C)S[C@@H]2[C@H](NC(=O)[C@H](N)c3ccccc3)C(=O)N2[C@H]1C(=O)O [Ampicillin, reference compound]",> 200 µM,> 200 µM,> 200 µM,1.56 µM,–,–,–,–,–,–,–,–,–,–,–,–,"MIC (Escherichia coli (UTI89); Escherichia coli (UTI89), OD 600 nm, read-out: MIC): > 100 µM; MIC [4]: 0.5 µg/mL; MIC [5]: 1 µg/mL"
"CC1=CC2(O)C(C3(C)CC(C)CC(C)C(=O)O3)CC(=O)C23C(=O)N(C)C(=O)C(c2ccccc2)C3C1C (stereo not drawn) [compound 2, chamiside A]",–,–,–,–,–,–,–,–,–,–,–,–,–,–,–,–,antibacterial activity against Staphylococcus aureus (Staphylococcus aureus): moderate antibacterial activity
"C[C@H]1Oc2cc3c(-c4c(O)cc(O)c5c(O)c6c(cc45)O[C@H](C)[C@@H](C)C6=O)c(O)cc(O)c3c(O)c2C(=O)[C@@H]1C [compound 7, chaetochromin A]",–,–,–,6.25 µM,> 100 µM,12.5 µM,6.25 µM,> 100 µM,> 100 µM,> 100 µM,33.6 µM,33.6 to 40 µM,> 200 µM,no cytotoxicity,35.4 µM,33.6 to 40 µM,antibacterial activity against S. aureus (Staphylococcus aureus): strong antibacterial activity
"C[C@@H]1Oc2cc3c(-c4c(O)cc(O)c5c(O)c6c(cc45)O[C@H](C)[C@@H](C)C6=O)c(O)cc(O)c3c(O)c2C(=O)[C@@H]1C [compound 8, chaetochromin B]",–,–,–,6.25 µM,> 100 µM,12.5 µM,6.25 µM,100 µM,> 100 µM,> 100 µM,37.3 µM,33.6 to 40 µM,> 200 µM,no cytotoxicity,40 µM,33.6 to 40 µM,–
Chamiside F,–,–,–,–,–,–,–,–,–,–,–,–,–,–,–,–,inhibitory activity against NPC1L1 [6]: inhibitory activity

# Reference: article PMC12348691, “Amesilide, a New Bicyclic Polyketide from the Marine Fungus Amesia nigricolor MUT6601” (Molecules, 2025)
